According to patent US20060199206A1, “Method for identifying skin care composition-resistant skin-binding peptides” (priority 2005, published 2006):

What was measured:
[1] = Phage ELISA for skin binding affinity (Example 14); design: species or system pig; conditions: 1×10^11 pfu of phage, 37° C. 15 min, TBST-0.5% washes; anti-M13 HRP conjugate; mean of at least three replicates
Method: (§1) Phage-peptide clones identified in Examples 11-13 were amplified by infecting fresh host cells (E. coli ER2338). The pigskin-bottom 96-well apparatus system described in Examples 11-13 was used for the ELISA procedure. For each clone to be tested, the pigskin well was incubated for 1 h at room temperature with 400 μL of blocking buffer, consisting of 2% non-fat dry milk (Schleicher & Schuell, Inc.) in TBS. The blocking buffer was removed by inverting the systems and blotting them dry with paper towels. The systems were rinsed 6 times with wash buffer consisting of TBST-0.05%. The wells were filled with 100 μL of TBST-0.5% containing 1 mg/mL of BSA and 1×10^11 pfu of phage. The samples were incubated at 37° C. for 15 min with slow shaking. The non-binding phage was removed by washing the wells 10 to 20 times with TBST-0.5%. Then, 100 μL of horseradish peroxidase/anti-M13 antibody conjugate (Amersham USA, Piscataway, N.J.), diluted 1:500 in the blocking buffer, was added to each well and incubated for 1 h at room temperature. The conjugate solution was removed and the wells were washed 6 times with TBST-0.05%. TMB substrate (200 μL), obtained from Pierce Biotechnology (Rockford, Ill.) was added to each well and the color was allowed to develop for between 5 to 30 min, typically for 10 min, at room temperature. Then, stop solution (200 μL of 2 M H2SO4) was added to each well and the solution was transferred to a 96-well plate and the absorbance at 450 nm (A450) was measured using a microplate spectrophotometer (Molecular Devices, Sunnyvale, Calif.). The resulting absorbance values, reported as the mean of at least three replicates, and the standard error of the mean (SEM) are given in Table 2.

[2] = Phage ELISA for skin binding affinity after body wash treatment (Example 15); design: species or system pig; conditions: mean of at least three replicates; for Body Wash A450 ± SEM: 200 μL Johnson's Head-to-Toe Baby Wash for 30 min after phage binding; for Buffer Wash A450 ± SEM: procedure of Example 14
Method: as §1
The ELISA procedure described in Example 14 was used with the following modification. After removal of the non-binding phage peptide solution from the wells, 200 μL of Johnson's Head-to-Toe Baby Wash was added to the wells and was incubated for 30 min. The washes and color development steps described in Example 14 were followed. For the buffer wash samples, the same procedure described in Example 14 was used. […] The resulting absorbance values, reported as the mean of at least three replicates, and the standard error of the mean are given in Table 3.

[3] = stated as known; cited from earlier work

Row | Substance | A450 ± SEM [1] | Body Wash A450 ± SEM [2] | Buffer Wash A450 ± SEM [2] | binding affinity for skin [3]
1 | ASCPSASHADPCAH (Body wash-resistant skin-binding peptide) [Skin-cys-2] | 1.184 ± 0.044 |  |  | 
2 | D21: hair-binding phage peptide used as control in Example 15, known low binding affinity for skin (RTNAADHPAAVT; Hair-binding sequence) [Clone D21, reference compound] |  | 0.549 ± 0.053 | 0.297 ± 0.004 | low binding affinity for skin
3 | DACSGNGHPNNCDR (Body wash-resistant skin-binding peptide) [Skin-cys-4] | 0.852 ± 0.033 |  |  | 
4 | DWCDTIIPGRTCHG (Body wash-resistant skin-binding peptide) [Skin-cys-6] | 1.657 ± 0.047 |  |  | 
5 | GSSTVGRPSLYE (Body wash-resistant skin-binding peptide) [Skin-12mer-6] | 0.677 ± 0.104 |  |  | 
6 | IB5: hair-binding phage peptide (Huang et al.) used as control, known low binding affinity for skin (TPPELLHGDPRS; Hair-binding peptide) |  | 0.453 ± 0.035 | 0.202 ± 0.010 | low binding affinity for skin
7 | NHSNWKTAADFL (Body wash-resistant skin-binding peptide) [Skin-12mer-4] | 0.874 ± 0.039 |  |  | 
8 | NLCDSARDSPRCKV (Body wash-resistant skin-binding peptide) [Skin-cys-3] | 0.927 ± 0.044 |  |  | 
9 | NQAASITKRVPY (Body wash-resistant skin-binding peptide) [Skin-12mer-5] | 0.391 ± 0.036 |  |  | 
10 | QLSYHAYPQANHHAP (Body wash-resistant skin-binding peptide) [Skin-15mer-1] | 1.264 ± 0.166 | 1.447 ± 0.178 | 1.031 ± 0.045 | 
11 | SDTISRLHVSMT (Body wash-resistant skin-binding peptide) [Skin-12mer-7] | 1.134 ± 0.093 |  |  | 
12 | SGCHLVYDNGFCDH (Body wash-resistant skin-binding peptide) [Skin-cys-1] | 1.385 ± 0.046 | 1.444 ± 0.293 | 1.182 ± 0.070 | 
13 | SPLTVPYERKLL (Body wash-resistant skin-binding peptide) [Skin-12mer-8] | 0.433 ± 0.05 |  |  | 
14 | SPYPSWSTPAGR (Body wash-resistant skin-binding peptide) [Skin-12mer-9] | 1.146 ± 0.131 | 2.265 ± 0.132 | 1.298 ± 0.11 | 
15 | SVSVGMKPSPRP (Body wash-resistant skin-binding peptide) [Skin-12mer-2] | 0.818 ± 0.108 |  |  | 
16 | TMGFTAPRFPHY (Body wash-resistant skin-binding peptide) [Skin-12mer-1] | 0.506 ± 0.097 |  |  | 
17 | VQPITNTRYEGG (Body wash-resistant skin-binding peptide) [Skin-12mer-10] | 0.418 ± 0.036 |  |  | 
18 | WPMHPEKGSRWS (Body wash-resistant skin-binding peptide) [Skin-12mer-11] | 0.81 ± 0.038 |  |  | 
